{"source": "ChEMBL document CHEMBL1122604", "about": "“(E)-2-(3,4-dimethoxyphenyl)-3-fluoroallylamine: a selective, enzyme-activated inhibitor of type B monoamine oxidase” (J Med Chem, 1984)", "key": {"[1]": {"test": "The minimum half-life at apparent dissociation concentration of 40 uM at 10 degrees Centigrade.", "assay_type": "ADME"}, "[2]": {"species": "Rattus norvegicus", "test": "Compound was evaluated for apparent kinetic dissociation (Ki) using Kitz and Wilson method.", "assay_type": "functional, organism-based"}, "[3]": {"biological_target": "T1, Amine oxidase [flavin-containing] A (Rattus norvegicus, UniProt P21396)", "T1 sequence (P21396 whole entry)": "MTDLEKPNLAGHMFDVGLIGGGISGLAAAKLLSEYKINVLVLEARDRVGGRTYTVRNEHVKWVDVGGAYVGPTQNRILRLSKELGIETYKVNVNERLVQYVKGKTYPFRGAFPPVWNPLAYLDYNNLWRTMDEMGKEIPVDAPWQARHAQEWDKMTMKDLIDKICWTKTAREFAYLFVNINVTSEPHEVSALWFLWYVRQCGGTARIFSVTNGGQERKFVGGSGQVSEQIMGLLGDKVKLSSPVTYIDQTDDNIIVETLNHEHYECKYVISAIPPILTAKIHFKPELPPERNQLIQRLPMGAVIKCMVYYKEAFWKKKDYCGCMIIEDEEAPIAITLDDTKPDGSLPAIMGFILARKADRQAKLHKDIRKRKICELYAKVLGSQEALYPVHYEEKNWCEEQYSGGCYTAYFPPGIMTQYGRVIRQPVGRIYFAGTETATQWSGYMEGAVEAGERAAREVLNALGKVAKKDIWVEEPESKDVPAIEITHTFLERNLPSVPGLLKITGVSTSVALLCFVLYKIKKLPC", "test": "Inhibition of monoamine oxidase (MAO) type A by administering the compound perorally at a dose level of 0.5 mg/(kg day).", "assay_type": "functional", "details": "po"}, "[4]": {"test": "The minimum half-life at saturation concentration of 130 uM at 10 degrees Centigrade.", "assay_type": "ADME", "details": "read-out: T50"}, "[5]": {"biological_target": "T2, Amine oxidase [flavin-containing] B (Rattus norvegicus, UniProt P19643)", "T2 sequence (P19643 whole entry)": "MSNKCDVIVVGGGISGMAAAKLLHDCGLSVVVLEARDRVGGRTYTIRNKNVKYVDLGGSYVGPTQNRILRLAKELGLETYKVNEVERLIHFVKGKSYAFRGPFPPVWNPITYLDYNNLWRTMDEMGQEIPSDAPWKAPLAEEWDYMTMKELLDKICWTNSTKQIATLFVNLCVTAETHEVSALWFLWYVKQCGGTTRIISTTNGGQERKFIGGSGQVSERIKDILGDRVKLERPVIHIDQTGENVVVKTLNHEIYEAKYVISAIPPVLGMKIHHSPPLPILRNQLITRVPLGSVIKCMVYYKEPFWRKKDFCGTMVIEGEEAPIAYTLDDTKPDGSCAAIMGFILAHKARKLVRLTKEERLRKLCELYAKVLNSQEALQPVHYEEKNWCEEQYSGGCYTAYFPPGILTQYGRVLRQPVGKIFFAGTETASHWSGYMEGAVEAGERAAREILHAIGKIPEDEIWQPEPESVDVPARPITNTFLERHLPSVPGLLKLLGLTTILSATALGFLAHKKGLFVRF", "test": "Inhibition of monoamine oxidase (MAO) type B by administering the compound perorally at a dose level of 0.5 mg/(kg day).", "assay_type": "functional", "details": "po"}, "[6]": {"biological_target": "T1, Amine oxidase [flavin-containing] A", "test": "Inhibition of monoamine oxidase (MAO) type A by administering the compound perorally at a dose level of 2.5 mg/(kg day).", "assay_type": "functional", "details": "po"}}, "note": "Several values for one entry are separate records, joined by “and”; a condition that tells them apart may be missing. Equal entries are not always repeated."}
{"compound": "COc1ccc(/C(=C\\F)CN)cc1OC.Cl", "values": [{"measurement": "T50", "setting": "[1]", "value": 1.7, "unit": "min"}, {"measurement": "Ki", "setting": "[2]", "value": "40 µM and 130 µM"}, {"measurement": "Inhibition", "setting": "[3]", "value": "< 15", "unit": "%"}, {"measurement": "half-life at 130 µM", "setting": "[4]", "value": 14.5, "unit": "min"}, {"measurement": "Inhibition", "setting": "[5]", "value": "> 85", "unit": "%"}, {"measurement": "Inhibition", "setting": "[6]", "value": 50, "unit": "%"}]}
